Data reported in article PMC10949335, “Identification of a novel DNA repair inhibitor using an in silico driven approach shows effective combinatorial activity with genotoxic agents against multidrug‐resistant Escherichia coli” (Protein Science : A Publication of the Protein Society, 2024).

What was measured:
[1] = molecular target: T1, UvrA-mNeonGreen (UvrA-mNG) (Escherichia coli, UniProt P0A698); test: C-trap optical tweezers, single-molecule DNA binding; assay type: biochemical; details: 20 μM Bemcentinib; lambda DNA at 50 pN; 1 mM ATP, 10 mM MgCl2, pH 7.5
T1 construct: C-terminal mNeonGreen reporter fusion; plasmid as in Bernacchia et al. 2023
T1 sequence (P0A698 whole entry, the tested form may be a part): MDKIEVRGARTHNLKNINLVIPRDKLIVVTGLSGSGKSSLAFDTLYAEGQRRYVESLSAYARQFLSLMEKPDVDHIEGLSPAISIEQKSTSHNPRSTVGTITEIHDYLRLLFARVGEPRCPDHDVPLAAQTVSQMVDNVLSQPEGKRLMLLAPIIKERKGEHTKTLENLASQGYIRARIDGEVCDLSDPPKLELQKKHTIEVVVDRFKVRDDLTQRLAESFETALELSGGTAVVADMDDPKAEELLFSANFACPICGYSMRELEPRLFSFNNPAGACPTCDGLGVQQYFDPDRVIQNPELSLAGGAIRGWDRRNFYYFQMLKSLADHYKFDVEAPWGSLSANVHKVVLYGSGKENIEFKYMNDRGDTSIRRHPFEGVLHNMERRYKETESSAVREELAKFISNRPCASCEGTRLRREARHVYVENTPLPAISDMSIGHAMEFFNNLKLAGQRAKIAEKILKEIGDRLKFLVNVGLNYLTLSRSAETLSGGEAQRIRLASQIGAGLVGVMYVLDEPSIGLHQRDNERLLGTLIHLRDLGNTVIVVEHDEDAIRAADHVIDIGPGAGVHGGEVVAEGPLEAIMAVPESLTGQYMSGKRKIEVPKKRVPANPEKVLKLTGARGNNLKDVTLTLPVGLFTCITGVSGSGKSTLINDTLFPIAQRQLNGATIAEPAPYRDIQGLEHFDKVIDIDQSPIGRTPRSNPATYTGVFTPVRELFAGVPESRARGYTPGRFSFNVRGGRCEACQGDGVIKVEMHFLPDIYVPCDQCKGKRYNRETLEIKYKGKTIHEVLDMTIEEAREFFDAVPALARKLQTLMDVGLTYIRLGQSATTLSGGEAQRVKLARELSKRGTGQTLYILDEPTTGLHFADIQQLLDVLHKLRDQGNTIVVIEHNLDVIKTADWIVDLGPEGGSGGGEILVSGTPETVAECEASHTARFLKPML

[2] = molecular target: T2, UvrA (Escherichia coli, UniProt P0A698); test: NADH-linked ATPase assay, Hill fit; assay type: biochemical
T2 construct: recombinant, IPTG-induced, Ni-NTA purified; plasmid as in Bernacchia et al. 2023; homodimer
T2 sequence (P0A698 whole entry): as the sequence (P0A698 whole entry, the tested form may be a part) above

## Nc1nc(Nc2ccc3c(c2)CC[C@@H](N2CCCC2)CC3)nn1-c1cc2c(nn1)-c1ccccc1CCC2 [Bemcentinib]
[1]
  % reduction in DNA binders per minute at 20 μM: ~ 90%
[2]
  IC50: 7.49 µM
